From patent US10059687B2, “Histone demethylase inhibitors” (CELGENE QUANTICEL RESEARCH, INC., priority 2015, dated 2018) come the findings set out here.

Each structure is given as a SMILES string. pIC50: −log10 of the molar value.

One assay addresses JMJD3 (Homo sapiens, UniProt O15054). Briefly: In vitro enzyme inhibition assay for JMJD3 activity (TR-FRET). The assay is classed as biochemical. The protocol: This assay determines the ability of a test compound to inhibit JMJD3 demethylase activity. Baculovirus expressed JMJD3 (GenBank Accession #NM-001080424, AA1043-end) was purchased from BPS Bioscience (Cat#50115).
The enzymatic assay of JMJD3 activity is based upon Time Resolved-Fluorescence Resonance Energy Transfer (TR-FRET) detection. The ability of test compounds to inhibit the activity of JMJD3 was determined in 384-well plate format under the following reaction conditions: 5 nM JMJD3, 250 nM H3K27me3-biotin labeled peptide (Anaspec cat #64367), 0.4 to 2 μM α-ketoglutaric acid in assay buffer of 50 mM HEPES, pH7.3, 0.005% Brij35, 0.5 mM TCEP, 0.2 mg/ml BSA, 50 μM sodium L-ascorbate, and 5 μM ammonium iron(II) sulfate. Reaction product was determined quantitatively by TR-FRET after the addition of detection reagent Phycolink Streptavidin-allophycocyanin (Prozyme) and Europium-anti-H3K27me2 antibody (PerkinElmer) in the presence of 5 mM EDTA in LANCE detection buffer (PerkinElmer) at a final concentration of 50 nM and 1 nM, respectively.
The assay reaction was initiated by the following: […] of the mixture of 750 nM H3K27me3-biotin labeled peptide and 1.2 to 6 μM alpha-ketoglutaric acid with 2 μL of 11-point serial diluted inhibitor in 3% DMSO were added to each well of plate, followed by the addition of 2 μl of 15 nM JMJD3 to initiate the reaction. The reaction mixture was incubated at RT for 30 min, and terminated by the addition of 6 μL of 5 mM EDTA in LANCE detection buffer containing 100 nM Phycolink Streptavidin-allophycocyanin and 2 nM Europium-anti-H3K27me2 antibody. Plates were read by EnVisionMultilabel Reader in TR-FRET mode (excitation at 320 nm, emission at 615 nm and 665 nm) after 1 hr incubation at RT. A ratio from the readout of 665/615 was calculated for each well and fitted to determine inhibition constant (IC50).
For orientation: In TR-FRET formats the signal depends on donor and acceptor labels being close together.

A further assay concerns the target Jarid1B (Homo sapiens (Human), UniProt Q9UGL1). Briefly: In vitro enzyme inhibition assay for Jarid1B activity (TR-FRET). It is filed as biochemical. The procedure: The ability of test compounds to inhibit the activity of Jarid1B was determined in 384-well plate format under the following reaction conditions: 0.8 nM Jarid1B, 300 nM H3K4me3-biotin labeled peptide (Anaspec cat #64357), 2 μM alpha-ketoglutaric acid in assay buffer of 50 mM HEPES, pH7.3, 0.005% Brij35, 0.5 mM TCEP, 0.2 mg/ml BSA, 50 μM sodium L-ascorbate, and 2 μM ammonium iron(II) sulfate. Reaction product was determined quantitatively by TR-FRET after the addition of detection reagent Phycolink Streptavidin-allophycocyanin (Prozyme) and Europium-anti-H3K4me or -H3K4me2 antibody (PerkinElmer) in the presence of 5 mM EDTA in LANCE detection buffer (PerkinElmer) at a final concentration of 25 nM and 1 nM, respectively.
(§1) The assay reaction was initiated by the following: 2 μl of the mixture of 900 nM H3K4me3-biotin labeled peptide and 6 μM alpha-ketoglutaric acid with 2 μl of 11-point serial diluted inhibitor in 3% DMSO was added to each well of the plate, followed by the addition of 2 μl of 2.4 nM Jarid1B to initiate the reaction. The reaction mixture was incubated at RT for 30 min, and terminated by the addition of 6 μl of 5 mM EDTA in LANCE detection buffer containing 50 nM Phycolink Streptavidin-allophycocyanin and 2 nM Europium-anti-H3K4me/H3K4me2 antibody. Plates were read by EnVisionMultilabel Reader in TR-FRET mode (excitation at 320 nm, emission at 615 nm and 665 nm) after 1 hr incubation at RT. A ratio was calculated (665/615) for each well and fitted to determine inhibition constant (IC50).

Assay [1] has as its system esophageal squamous cell carcinoma KYSE-150 cells. Description: Cellular IC50 in KYSE-150 cells. It is filed as cell-based. Particulars: Homo sapiens, one class given per A and B pair. The source says: Table 7 provides IC50 values of various compounds disclosed herein, tested in cellular human esophageal squamous cell carcinoma KYSE-150 cells: […]
For the next assay, the target named is JMJD2C (Homo sapiens (Human), UniProt Q9H3R0). Briefly: In vitro enzyme inhibition assay for JMJD2C activity (TR-FRET). It is filed as biochemical. The procedure: This assay determines the ability of a test compound to inhibit JMJD2C demethylase activity. Baculovirus expressed JMJD2C (GenBank Accession #BC143571, AA 2-372) was purchased from BPS Bioscience (Cat#50105).
Sequence of JMJD2C (Q9H3R0 2-372): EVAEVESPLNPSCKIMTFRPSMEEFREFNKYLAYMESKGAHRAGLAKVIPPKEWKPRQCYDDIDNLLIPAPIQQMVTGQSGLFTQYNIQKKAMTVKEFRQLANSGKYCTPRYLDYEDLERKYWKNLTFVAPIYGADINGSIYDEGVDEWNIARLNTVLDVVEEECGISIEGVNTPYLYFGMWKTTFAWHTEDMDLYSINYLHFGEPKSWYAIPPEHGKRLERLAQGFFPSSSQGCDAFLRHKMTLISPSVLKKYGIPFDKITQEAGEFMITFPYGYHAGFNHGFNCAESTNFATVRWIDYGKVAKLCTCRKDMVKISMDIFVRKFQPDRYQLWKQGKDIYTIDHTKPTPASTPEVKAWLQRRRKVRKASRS
The ability of test compounds to inhibit the activity of JMJD2C was determined in 384-well plate format under the following reaction conditions: 0.3 nM JMJD2C, 300 nM H3K9me3-biotin labeled peptide (Anaspec cat #64360), 2 μM alpha-ketoglutaric acid in assay buffer of 50 mM HEPES, pH7.3, 0.005% Brij35, 0.5 mM TCEP, 0.2 mg/ml BSA, 50 μM sodium L-ascorbate, and 2 μM ammonium iron(II) sulfate. Reaction product was determined quantitatively by TR-FRET after the addition of detection reagent Phycolink Streptavidin-allophycocyanin (Prozyme) and Europium-anti-di-methylated histone H3 lysine 9 (H3K9me2) antibody (PerkinElmer) in the presence of 5 mM EDTA in LANCE detection buffer (PerkinElmer) at a final concentration of 50 nM and 1 nM, respectively.
as §1, with “nM H3K9me3-biotin” for “nM H3K4me3-biotin”, “DMSO were” for “DMSO was”, “of 0.9” for “of 2.4”, “nM JMJD2C” for “nM Jarid1B”, “containing 100” for “containing 50”, “nM Europium-anti-H3K9me2” for “nM Europium-anti-H3K4me/H3K4me2”

Setting [2] is: Table 5, one class given per A and B pair.
The mark [3] stands for this setting: Table 4, cell gives A/B enantiomer values.

Sequence of Jarid1B (Q9UGL1 whole entry, species assumed): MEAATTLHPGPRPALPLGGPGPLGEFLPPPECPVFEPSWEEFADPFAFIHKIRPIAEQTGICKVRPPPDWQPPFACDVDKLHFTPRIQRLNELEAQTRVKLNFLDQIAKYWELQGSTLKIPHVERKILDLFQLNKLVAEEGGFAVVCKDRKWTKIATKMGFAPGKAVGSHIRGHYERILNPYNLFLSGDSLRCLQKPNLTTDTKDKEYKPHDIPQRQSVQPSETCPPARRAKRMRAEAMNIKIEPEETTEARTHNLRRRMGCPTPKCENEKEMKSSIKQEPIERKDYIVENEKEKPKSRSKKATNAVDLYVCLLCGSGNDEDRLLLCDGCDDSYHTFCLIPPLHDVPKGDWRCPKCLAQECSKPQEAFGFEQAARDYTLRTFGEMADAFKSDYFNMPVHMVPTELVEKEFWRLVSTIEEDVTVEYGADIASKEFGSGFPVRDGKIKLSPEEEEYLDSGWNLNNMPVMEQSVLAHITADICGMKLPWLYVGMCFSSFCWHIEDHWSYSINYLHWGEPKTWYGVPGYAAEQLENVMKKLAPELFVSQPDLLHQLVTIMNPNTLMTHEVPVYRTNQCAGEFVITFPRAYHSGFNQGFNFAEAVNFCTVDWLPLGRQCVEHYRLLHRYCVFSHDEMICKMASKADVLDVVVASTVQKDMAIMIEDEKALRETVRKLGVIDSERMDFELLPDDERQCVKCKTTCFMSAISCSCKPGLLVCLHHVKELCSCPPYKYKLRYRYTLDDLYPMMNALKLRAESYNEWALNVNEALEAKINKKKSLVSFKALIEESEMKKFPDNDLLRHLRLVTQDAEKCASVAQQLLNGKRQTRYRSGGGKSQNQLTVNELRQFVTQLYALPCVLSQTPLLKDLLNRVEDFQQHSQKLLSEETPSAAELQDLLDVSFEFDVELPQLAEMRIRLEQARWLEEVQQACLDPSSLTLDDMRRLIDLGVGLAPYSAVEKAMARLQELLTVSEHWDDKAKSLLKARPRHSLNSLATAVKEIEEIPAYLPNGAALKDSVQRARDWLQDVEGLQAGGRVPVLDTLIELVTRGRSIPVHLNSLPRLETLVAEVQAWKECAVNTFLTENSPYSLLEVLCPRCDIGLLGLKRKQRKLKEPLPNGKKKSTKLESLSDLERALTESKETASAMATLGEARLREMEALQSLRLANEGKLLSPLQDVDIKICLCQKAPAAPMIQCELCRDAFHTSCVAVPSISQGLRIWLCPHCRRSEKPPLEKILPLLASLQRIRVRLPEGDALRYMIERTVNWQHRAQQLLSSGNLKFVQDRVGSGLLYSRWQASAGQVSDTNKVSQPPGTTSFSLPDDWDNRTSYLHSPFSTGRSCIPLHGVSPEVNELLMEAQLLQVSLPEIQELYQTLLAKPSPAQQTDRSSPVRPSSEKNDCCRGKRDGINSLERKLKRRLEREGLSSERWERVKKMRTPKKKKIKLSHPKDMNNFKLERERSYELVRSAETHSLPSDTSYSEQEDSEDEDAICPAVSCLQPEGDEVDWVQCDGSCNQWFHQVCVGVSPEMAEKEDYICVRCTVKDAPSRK

A word on the pIC50: it is the IC50 on a negative log10 scale, so that one unit is a factor of ten. The low end stands for a large IC50, the high end for a small IC50. As for `Cc1ccc(N(C)c2ccc3c(c2)CN(C)[C@H]3CNc2cnccc2C(=O)O)cc1` [Example 18A, (R)-3-(((2-methyl-5-(methyl(p-tolyl)amino)isoindolin-1-yl)methyl)amino) isonicotinic acid], the negative logarithm of the IC50 (pIC50) was 5.00 to 6.00 on JMJD3 (setting [2]), at least 7.00 against Jarid1B (setting [2]), at least 7.00 in assay [1] and 6.00 to 7.00 against JMJD2C (setting [2]).
For the molecule `CC(C)c1ccc(N(C)c2ccc3c(c2)CCN[C@H]3CNc2cnccc2C(=O)O)cc1` [Example 3B, 3-{[((1R)-6-{methyl[4-isopropylphenyl]amino}-1,2,3,4-tetrahydroisoquinolyl)methyl]amino}pyridine-4-carboxylic acid], the pIC50 against JMJD3 (setting [3]) is 6.00 to 7.00; on JMJD3 (setting [2]), 6.00 to 7.00; against Jarid1B (setting [3]) it was at least 7.00; against Jarid1B (setting [2]), at least 7.00; in assay [1] it was at least 7.00; against JMJD2C (setting [3]) it was 6.00 to 7.00. At JMJD2C (setting [2]), this molecule gave a pIC50 of 6.00 to 7.00.
With `CC(C)c1ccc(N(C)c2ccc3c(c2)CN[C@H]3CNc2cnccc2C(=O)O)cc1` [Example 6B, 3-{[((1R)-5-{methyl[4-isopropylphenyl]amino}isoindolinyl)methyl]amino}pyridine-4-carboxylic acid], the pIC50 is under 5.00 on JMJD3 (setting [3]); 5.00 to 6.00 against JMJD3 (setting [2]); at least 7.00 against Jarid1B (setting [3]); at least 7.00 against Jarid1B (setting [2]); 6.00 to 7.00 in assay [1]; 5.00 to 6.00 on JMJD2C (setting [3]). In addition, the pIC50 at JMJD2C (setting [2]) is 5.00 to 6.00.
Consider `CCc1ccc(N(C)c2ccc3c(c2)CCN(C)[C@H]3CNc2cnccc2C(=O)O)cc1` [Example 13A, (R)-3-(((6-((4-ethylphenyl)(methyl)amino)-2-methyl-1,2,3,4-tetrahydro-isoquinolin-1-yl)methyl)amino)isonicotinic acid], for which the pIC50 is 5.00 to 6.00 at JMJD3 (setting [2]), at least 7.00 against Jarid1B (setting [2]), at least 7.00 in assay [1] and 6.00 to 7.00 against JMJD2C (setting [2]).
In the case of `Cc1cc(OCC2CC2)ccc1-c1ccc2c(c1)CCN[C@@H]2CNc1cnccc1C(=O)O` [Example 4A, 3-[({(1S)-6-[4-(cyclopropylmethoxy)-2-methylphenyl]-1,2,3,4-tetrahydro-isoquinolyl}methyl)amino]pyridine-4-carboxylic acid], the pIC50 against JMJD3 (setting [3]) is 5.00 to 6.00; on JMJD3 (setting [2]), under 5.00; on Jarid1B (setting [3]) it was at least 7.00; against Jarid1B (setting [2]) it was at least 7.00; in assay [1] it was 6.00 to 7.00; at JMJD2C (setting [3]) it was 5.00 to 6.00. On JMJD2C (setting [2]), this molecule showed a negative-log IC50 (pIC50) of 6.00 to 7.00.
On to `CCc1ccccc1-c1ccc2c(c1)CN(C)[C@@H]2CNc1cnccc1C(=O)O` [Example 22B, (S)-3-(((5-(2-ethylphenyl)-2-methyl-isoindolin-1-yl)methyl)amino) isonicotinic acid], for which the pIC50 against JMJD3 (setting [2]) was 5.00 to 6.00; against Jarid1B (setting [2]), at least 7.00; in assay [1], at least 7.00; at JMJD2C (setting [2]) it was 6.00 to 7.00.
In the case of `Cc1ccc(N(C)c2ccc3c(c2)CCN(C)[C@H]3CNc2cnccc2C(=O)O)cc1` [Example 11A, (R)-3-(((2-methyl-6-(methyl(p-tolyl)amino)-1,2,3,4-tetrahydroisoquinolin-1-yl)methyl)amino)isonicotinic acid], the pIC50 against JMJD3 (setting [2]) was 5.00 to 6.00; against Jarid1B (setting [2]), at least 7.00; in assay [1] it was at least 7.00; at JMJD2C (setting [2]) it was 6.00 to 7.00.
Consider `CCCc1ccc(N(C)c2ccc3c(c2)CCN(C)[C@H]3CNc2cnccc2C(=O)O)cc1` [Example 14A, (R)-3-(((2-methyl-6-(methyl (4-propylphenyl)amino)-1,2,3,4-tetrahydroisoquinolin-1-yl)methyl)amino)isonicotinic acid], for which the negative logarithm of the IC50 (pIC50) against JMJD3 (setting [2]) was 5.00 to 6.00; against Jarid1B (setting [2]), at least 7.00; in assay [1], at least 7.00; on JMJD2C (setting [2]), 5.00 to 6.00.
Take `CCc1ccccc1-c1ccc2c(c1)CCN[C@@H]2CNc1cnccc1C(=O)O` [Example 9B, (S)-3-(((6-(2-ethylphenyl)-1,2,3,4-tetrahydroisoquinolin-1-yl)methyl)amino)isonicotinic Acid]: the negative-log IC50 (pIC50) on JMJD3 (setting [2]) was 5.00 to 6.00; on Jarid1B (setting [2]), at least 7.00; in assay [1] it was 6.00 to 7.00; against JMJD2C (setting [2]), 5.00 to 6.00.
As to `CCc1ccccc1-c1ccc2c(c1)CCN[C@H]2CNc1cnccc1C(=O)O` [Example 9A, (R)-3-(((6-(2-ethylphenyl)-1,2,3,4-tetrahydroisoquinolin-1-yl)methyl)amino)isonicotinic Acid], the pIC50 at JMJD3 (setting [2]) was 5.00 to 6.00; against Jarid1B (setting [2]) it was at least 7.00; in assay [1] it was 6.00 to 7.00; on JMJD2C (setting [2]), 5.00 to 6.00.
Regarding `Cc1cc(OCC2CC2)ccc1-c1ccc2c(c1)CCN[C@H]2CNc1cnccc1C(=O)O` [Example 4B, 3-[({(1R)-6-[4-(cyclopropylmethoxy)-2-methylphenyl]-1,2,3,4-tetrahydro-isoquinolyl}methyl)amino]pyridine-4-carboxylic acid], the negative logarithm of the IC50 (pIC50) on JMJD3 (setting [3]) is under 5.00; against JMJD3 (setting [2]), under 5.00; on Jarid1B (setting [3]), at least 7.00; at Jarid1B (setting [2]) it was at least 7.00; in assay [1], 6.00 to 7.00; on JMJD2C (setting [3]), 5.00 to 6.00. The molecule further had a negative-log IC50 (pIC50) against JMJD2C (setting [2]) of 6.00 to 7.00.
On to `Cc1ccccc1-c1ccc2c(c1)CCN(C)[C@H]2CNc1cnccc1C(=O)O` [Example 12A, (R)-3-(((2-methyl-6-(o-tolyl)-1,2,3,4-tetrahydroisoquinolin-1-yl)methyl)amino)isonicotinic acid], for which the pIC50 against JMJD3 (setting [2]) is 5.00 to 6.00; on Jarid1B (setting [2]), at least 7.00; in assay [1], at least 7.00; against JMJD2C (setting [2]), 5.00 to 6.00.
Turning to `CCCc1ccc(N(C)c2ccc3c(c2)CN(C)[C@H]3CNc2cnccc2C(=O)O)cc1` [Example 20A, (R)-3-(((2-methyl-5-(methyl (4-propylphenyl)amino)isoindolin-1-yl)methyl)amino)isonicotinic acid], the pIC50 against JMJD3 (setting [2]) was 5.00 to 6.00; against Jarid1B (setting [2]), at least 7.00; in assay [1], at least 7.00; against JMJD2C (setting [2]) it was 6.00 to 7.00.
